Results reported in patent US9073916B2, “Prodrug forms of kinase inhibitors and their use in therapy” (AUCKLAND UNISERVICES LIMITED, priority 2009, dated 2015).
Where two headings read alike, the source gives them in different places.

Key:
[1] = Steady state radiolytic reduction by the CO2.− radical with HPLC-MS; type: physicochemical; details: for Detection of MNA (methyl nitroaromatic) / release of effector following 1-electron reduction: HPLC-MS; for % Loss of prodrug: HPLC-MS at 0.95 reducing equivalents; for release of effector following 1-electron reduction: steady state radiolysis
[2] = Pulse radiolysis (E(1) and fragmentation rate); type: physicochemical; details: for kfrag. (fragmentation rate constant upon 1-electron reduction): benzyl-type radical formation; for E (1)/V (one-electron reduction potential): determined against methylviologen
Procedure: Pulse radiolysis was used to monitor the 1-electron reduction and stability of the compounds in real time. A linear accelerator delivering short pulses of high energy electrons (2-3 Gy in 200 ns of 4 MeV) equipped with a fast spectophotometric detection system was used. (Anderson et al, J. Phys. Chem. A, 101, 9704-9709, 1997). […] The rate of fragmentation was determined by analysing kinetic transients at wavelengths corresponding to the formation of the benzyl-type radical of the trigger moiety. (Bays et al, J. Am. Chem. Soc., 105, 320-324, 1983; Anderson et al, J. Phys. Chem. A, 101, 9704-9709, 1997).
The pulse radiolysis method, for example, measures the equilibrium constant between the radical anions of the prodrugs, formed upon their 1-electron reduction, and reference standards such as viologen and quinone compounds, from which data the E(1) values of the compounds can be calculated. (Meisel and Czapski. J. Phys. Chem., 1975, 79, 1503-1509.) The E(1) values of prodrugs 17-22, 140-145 were measured by the pulse radiolysis method and determined to range between −0.493V and −0.388V (Table 4).
The rate constants for fragmentation, kfrag, of the 1-electron reduced prodrugs can be measured using pulse radiolysis to observe the time-resolved formation of the absorption spectrum of the benzyl-type radical produced upon fragmentation of the radical anion. (Anderson et al, J. Phys. Chem. A, 1997, 101, 9704-9709.) The kfrag values of prodrugs 19, 20, 140, 141 and 143-145 were measured by pulse radiolysis and are presented in Table 4.
Pulse radiolysis was used to monitor the one-electron reduction and stability of prodrug 42 in real time. A linear accelerator delivering short pulses of high energy electrons (2-3 Gy in 200 ns of 4 MeV) equipped with a fast spectophotometric detection system was used. […] The rate of fragmentation was determined by analysing kinetic transients at wavelengths corresponding to the formation of the benzyl-type radical of the trigger moiety. (Bays et al, J. Am. Chem. Soc., 105, 320-324, 1983; Anderson et al, J. Phys. Chem. A, 101, 9704-9709, 1997.)

SKBR3 cells = test: Cellular growth inhibition (sulforhodamine B); type: cell-based, Human; details: Table 3; for IC50: Homo sapiens, SK-BR-3
SW620 cells = test: Cellular growth inhibition (sulforhodamine B); type: cell-based, Human; details: Table 3; for IC50: Homo sapiens, SW-620
Procedure: (§1) Human A431, BT474, SKBR3, SKOV3, SW620, H1975 and HT29 carcinoma cells in log phase exponential growth in alpha minimal essential media (αMEM) containing 5% fetal bovine serum (FBS), were harvested by trypsinisation (1× trypsin/EDTA, Gibco Brl), counted, and seeded into 96 well plates (Nunc) at cell densities ranging from 800-1500 cells/well. Half of the cell samples were seeded into plates that were pre-equilibrated and held in an anoxic environment (90% N2, 5% H2, 5% CO2, 37° Q Anaerobic chamber, Coy Laboratory Products). […] At the end of this period the anoxic plates were recovered from the anaerobic camber and held under normoxia in a standard CO2 incubator (37° C.) for 20 hours. All plates were washed free of compound and cells were allowed to proliferate for a further 4 days in αMEM containing 5% FBS+antibiotics. Cells were fixed in trichloroacteic acid (30 min), washed and stained with sulforhodamine B (SRB, 60 min) prior to washing in acidified water. SRB was solubilised and absorption read at 450 nm to calculate cell densities. Inhibition of proliferation was calculated relative to untreated control wells.

A431 cells = test: Cellular growth inhibition (sulforhodamine B); details: for A431 HCR (Hypoxic Cytotoxicity Ratio): Table 3
Procedure: as §1
(§2) Human A431, H1975 and SKOV3 carcinoma cells in log phase exponential growth in alpha minimal essential media (αMEM) containing 5% fetal bovine serum (FBS), were harvested by trypsinisation (1× trypsin/EDTA, Gibco Brl), counted, and seeded into 96 well plates (Nunc) at cell densities ranging from 800-1500 cells/well. Half of the cell samples were seeded into plates that were pre-equilibrated and held in an anoxic environment (90% N2, 5% H2, 5% CO2, 37° C.; Anaerobic chamber, Coy Laboratory Products). […] At the end of this period the anoxic plates were recovered from the anaerobic camber and held under normoxia in a standard CO2 incubator (37° C.) for 20 hours. All plates were washed free of compound and cells were allowed to proliferate for a further 4 days in αMEM containing 5% FBS+antibiotics. Cells were fixed in trichloroacteic acid (30 min), washed and stained with sulforhodamine B (SRB, 60 min) prior to washing in acidified water. SRB was solubilised and absorption read at 450 nm to calculate cell densities. Inhibition of proliferation was calculated relative to untreated control wells.

erbB1 = erbB1 (Homo sapiens, UniProt P00533); test: Inhibition of erbB1 autophosphorylation in EGF-stimulated intact A431 cells (Western blot)
Chain of erbB1 (P00533 25-1210): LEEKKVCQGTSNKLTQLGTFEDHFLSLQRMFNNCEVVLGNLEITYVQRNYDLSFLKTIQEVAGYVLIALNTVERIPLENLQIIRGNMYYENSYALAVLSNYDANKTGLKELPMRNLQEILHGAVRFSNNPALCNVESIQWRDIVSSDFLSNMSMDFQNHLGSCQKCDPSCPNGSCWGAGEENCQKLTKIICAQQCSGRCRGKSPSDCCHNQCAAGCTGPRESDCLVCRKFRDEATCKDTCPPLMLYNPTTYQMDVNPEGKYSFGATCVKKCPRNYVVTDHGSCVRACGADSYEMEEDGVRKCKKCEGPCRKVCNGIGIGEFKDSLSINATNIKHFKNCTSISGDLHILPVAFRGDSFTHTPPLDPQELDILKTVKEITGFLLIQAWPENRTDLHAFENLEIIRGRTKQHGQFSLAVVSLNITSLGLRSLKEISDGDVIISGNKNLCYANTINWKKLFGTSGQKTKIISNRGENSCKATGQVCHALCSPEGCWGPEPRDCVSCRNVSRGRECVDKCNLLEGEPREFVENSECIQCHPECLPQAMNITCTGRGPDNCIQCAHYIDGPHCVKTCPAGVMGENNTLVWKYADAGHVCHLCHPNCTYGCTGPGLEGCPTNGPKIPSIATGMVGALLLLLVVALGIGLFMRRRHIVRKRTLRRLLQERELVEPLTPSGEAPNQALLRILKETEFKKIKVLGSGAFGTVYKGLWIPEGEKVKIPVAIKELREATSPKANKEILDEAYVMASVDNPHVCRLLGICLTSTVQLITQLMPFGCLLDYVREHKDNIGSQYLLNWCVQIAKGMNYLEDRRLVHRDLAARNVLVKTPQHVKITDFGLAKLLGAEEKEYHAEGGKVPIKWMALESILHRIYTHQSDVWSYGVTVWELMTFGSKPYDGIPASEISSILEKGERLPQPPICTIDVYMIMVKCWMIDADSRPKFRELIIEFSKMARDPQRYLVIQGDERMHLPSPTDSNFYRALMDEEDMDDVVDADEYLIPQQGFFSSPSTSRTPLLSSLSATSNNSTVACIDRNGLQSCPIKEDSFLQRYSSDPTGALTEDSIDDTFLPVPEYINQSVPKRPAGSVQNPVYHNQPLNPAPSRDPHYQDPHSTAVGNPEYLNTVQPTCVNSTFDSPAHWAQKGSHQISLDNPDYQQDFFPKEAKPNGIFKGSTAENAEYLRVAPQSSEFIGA

H1975 cells = test: Cellular growth inhibition (sulforhodamine B); type: cell-based, Human
Procedure: as §1, §2
They were then washed free of drug and incubated for a further 4 days, before being stained for cell survival with sulforhodamine B.

SKOV3 cells = test: Cellular growth inhibition (sulforhodamine B); type: cell-based, Human; details: Table 9; for IC50: Homo sapiens, SK-OV-3
HT29 cells = test: Cellular growth inhibition (sulforhodamine B); type: cell-based, Human; details: Table 7
Procedure: as §1

[3] = 24 hour exposure entirely oxic, read-out: Cellular Growth Inhibition IC50 SKBR3 Oxic
[4] = first 4 hours anoxic, read-out: Cellular Growth Inhibition IC50 SKBR3 Anoxic
[5] = 24 hour exposure entirely oxic, read-out: Cellular Growth Inhibition IC50 SW620 Oxic
[6] = first 4 hours anoxic, read-out: Cellular Growth Inhibition IC50 SW620 Anoxic
[7] = Homo sapiens, A-431, 24 h, read-out: Cellular Growth Inhibition IC50 A431 Oxic
[8] = Homo sapiens, A-431, read-out: Cellular Growth Inhibition IC50 A431 Anoxic
[9] = Table 7, 24 hour exposure oxic, read-out: Cellular Growth Inhibition IC50 H1975 Oxic
[10] = Table 7, initial 4 hours anoxic, read-out: Cellular Growth Inhibition IC50 H1975 Anoxic
[11] = 24 hour exposure oxic, read-out: Cellular Growth Inhibition IC50 HT29 Oxic
[12] = initial 4 hours anoxic, read-out: Cellular Growth Inhibition IC50 HT29 Anoxic
[13] = read-out: Cellular Growth Inhibition IC50 A431 Anoxic, Table 7, initial 4 hours anoxic
[14] = read-out: Cellular Growth Inhibition IC50 A431 Oxic, Table 7, 24 hour exposure oxic

Structure (SMILES)	Detection of MNA (methyl nitroaromatic) [1]	% Loss of prodrug [1]	kfrag. (fragmentation rate constant upon 1-electron reduction) [2]	E (1)/V (one-electron reduction potential) [2]	IC50 (A431 cells; [7])	IC50 (erbB1)	H1975 HCR (H1975 cells; Table 7)	IC50 (H1975 cells; [9])	IC50 (H1975 cells; [10])	IC50 (HT29 cells; [11])	IC50 (HT29 cells; [12])	A431 HCR (A431 cells; Table 7)	IC50 (A431 cells; [13])	IC50 (A431 cells; [14])	HT29 HCR (HT29 cells)	further results
CC[N+](CC)(CCNC(=O)c1c(C)[nH]c(/C=C2\C(=O)Nc3ccc(F)cc32)c1C)Cc1c([N+](=O)[O-])nc(C)n1C.[Br-] [Compound 145, N-[(1,2-dimethyl-4-nitro-1H-imidazol-5-yl)methyl]-N,N-diethyl-2-[({5-[(Z)-(5-fluoro-2-oxo-1,2-dihydro-3H-indol-3-ylidene)methyl]2,4-dimethyl-1H-pyrrol-3-yl}carbonyl)amino]ethanammonium bromide]	Yes	87%	1050 ± 40 s⁻¹	−0.456 V	–	–	–	–	–	–	–	–	–	–	–	–
O=C(/C=C/CN1CCCCC1)Nc1ccc2ncnc(Nc3cccc(Br)c3)c2c1 [Compound 12, (E)-N-(4-(3-bromophenylamino)quinazolin-6-yl)-4-(piperidin-1-yl)but-2-enamide, reference compound]	–	–	–	–	10 nM	45 nM	–	–	–	–	–	–	–	–	–	IC50 (SKBR3 cells; [3]): 44 nM; IC50 (SKBR3 cells; [4]): 28 nM; SKBR3 HCR (SKBR3 cells): 1.6 fold; IC50 (SW620 cells; [5]): 3810 nM; IC50 (SW620 cells; [6]): 4010 nM; SW620 HCR (SW620 cells): 1.0 fold; IC50 (A431 cells; [8]): 23 nM; A431 HCR (Hypoxic Cytotoxicity Ratio) (A431 cells): 0.4 fold
O=C(/C=C/CN1CCOCC1)Nc1ccc2ncnc(Nc3cccc(Br)c3)c2c1 [Compound 13, (E)-N-(4-(3-bromophenylamino)quinazolin-6-yl)-4-morpholinobut-2-enamide, reference compound]	–	–	–	–	430 nM	16 nM	–	–	–	–	–	–	–	–	–	IC50 (SKBR3 cells; [3]): 1040 nM; IC50 (SKBR3 cells; [4]): 664 nM; SKBR3 HCR (SKBR3 cells): 1.6 fold; IC50 (SW620 cells; [5]): 27400 nM; IC50 (SW620 cells; [6]): 29000 nM; SW620 HCR (SW620 cells): 1.5 fold; IC50 (A431 cells; [8]): 784 nM; A431 HCR (Hypoxic Cytotoxicity Ratio) (A431 cells): 0.5 fold
CN(C)C/C=C/C(=O)Nc1cc2c(Nc3ccc(F)c(C(F)(F)F)c3)ncnc2cn1 [Compound 170]	–	–	–	–	240 nM	8 nM	–	–	–	–	–	–	–	–	–	IC50 (H1975 cells; Homo sapiens, NCI-H1975, Table 9, 24 hour exposure oxic, read-out: Cellular Growth Inhibition IC50 H1975 Oxic): 1700 nM; IC50 (H1975 cells; Homo sapiens, NCI-H1975, Table 9, first 4 hours anoxic, read-out: Cellular Growth Inhibition IC50 H1975 Anoxic): 1380 nM; H1975 HCR (H1975 cells; Table 9): 1.2 fold; IC50 (SKOV3 cells; 24 hour exposure oxic, read-out: Cellular Growth Inhibition IC50 SKOV3 Oxic): 990 nM; IC50 (SKOV3 cells; first 4 hours anoxic, read-out: Cellular Growth Inhibition IC50 SKOV3 Anoxic): 1800 nM; SKOV3 HCR (SKOV3 cells): 0.7 fold; IC50 (A431 cells; Homo sapiens, A-431, 4 h, read-out: Cellular Growth Inhibition IC50 A431 Anoxic): 250 nM; A431 HCR (A431 cells; Table 9): 1.5 fold
Cn1cnc([N+](=O)[O-])c1C[N+](C)(C)C/C=C/C(=O)Nc1cc2c(Nc3ccc(F)c(Cl)c3)ncnc2cc1O[C@H]1CCOC1.O=C([O-])C(F)(F)F [Compound 82, (2E)-4-({4-(3-chloro-4-fluoroanilino)-7-[(3S)-tetrahydro-3-furanyloxy]-6-quinazolinyl}amino)-N,N-dimethyl-N-[(1-methyl-4-nitro-1H-imidazol-5-yl)methyl]-4-oxo-2-buten-1-ammonium trifluoroacetate]	–	–	–	–	–	–	28 fold	64500 nM	2300 nM	> 100000 nM	> 30000 nM	62 fold	59 nM	3600 nM	–	–
CC[N+](CC)(CCOc1ccc(Nc2ncc3cc(-c4c(Cl)cccc4Cl)c(=O)n(C)c3n2)cc1)Cc1c([N+](=O)[O-])nc(C)n1C.[Br-] [Compound 141, 2-(4-{[6-(2,6-dichlorophenyl)-8-methyl-7-oxo-7,8-dihydropyrido[2,3-d]pyrimidin-2-yl]amino}phenoxy)-N-[(1,2-dimethyl-4-nitro-1H-imidazol-5-yl)methyl]N,N-diethylethanammonium bromide]	Yes	83%	1100 ± 100 s⁻¹	−0.456 V	–	–	18 fold	6100 nM	370 nM	5600 nM	320 nM	30 fold	440 nM	12300 nM	18 fold	–
CC[N+](CC)(CCOc1ccc(Nc2ncc3cc(-c4c(Cl)cccc4Cl)c(=O)n(C)c3n2)cc1)Cc1c([N+](=O)[O-])ncn1C.[Br-] [Compound 140, 2-(4-{[6-(2,6-dichlorophenyl)-8-methyl-7-oxo-7,8-dihydropyrido[2,3-d]pyrimidin-2-yl]amino}phenoxy)-N,N-diethyl-N-[(1-methyl-4-nitro-1H-imidazol-5-yl)methyl]ethanammonium bromide]	Yes	92%	310 ± 20 s⁻¹	−0.429 V	–	–	13 fold	4700 nM	430 nM	4600 nM	310 nM	15 fold	510 nM	7900 nM	15 fold	release of effector following 1-electron reduction [1]: released their respective effector compounds
CC[N+](CC)(CCNC(=O)c1c(C)[nH]c(/C=C2\C(=O)Nc3ccc(F)cc32)c1C)Cc1c([N+](=O)[O-])ncn1C.O=C([O-])C(F)(F)F [Compound 144, N,N-diethyl-2-[({5-[(Z)-(5-fluoro-2-oxo-1,2-dihydro-3H-indol-3-ylidene)methyl]-2,4-dimethyl-1H-pyrrol-3-yl}carbonyl)amino]-N-[(1-methyl-4-nitro-1H-imidazol-5-yl)methyl]ethanammonium trifluoroacetate]	Yes	68%	470 ± 20 s⁻¹	−0.449 V	–	–	3 fold	203000 nM	57200 nM	298000 nM	10700 nM	7 fold	24100 nM	146000 nM	31 fold	release of effector following 1-electron reduction [1]: released their respective effector compounds
